In this test the target is T1, heteromeric KV7.2/KV7.3 channels (KCNQ2, KCNQ3) (Homo sapiens, UniProt O43525+O43526).
T1 construct: expressed in transfected cells; host or cells: CHO-K1
Put plainly: Automated patch-clamp (Sophion Qube 384) potency assay against KV7.2/KV7.3 channels. Type of test: cell-based. The following applies: CHO-K1/Kv7.2/Kv7.3 cells; for EC50: EC50 from concentration-response of shift in Vhalf, 10 concentrations up to 30 μM, read-out: Kv7.2/7.3 EC50; for Kv7.2/7.3 ΔV1/2: maximal shift in the Vhalf from the top of the curve. From the text: Assessment of In Vitro Potency Against KV7.2/KV7.3 Channels
An automated patch-clamp assay on the Sophion Qube 384 was developed for potency testing to identify small molecule activators of heteromeric KV7.2/KV7.3 channels (KCNQ2, Uniprot ID 043526; KCNQ3, Uniprot 043525).
The cell line used was a stably transfected CHO-K1 cell line with constitutive KV7.2/KV7.3 expression.
CHO-K1/Kv7.2/Kv7.3 cells were maintained in the following culture media: • DMEM/F-12 with GlutaMAX™ (Gibco 31331-028), • 10% Fetal clone 2 serum (Perbio Science SH30066.03), • 1 mg/ml Geneticin™ selective antibiotic (G418, Invitrogen 1013027), and • 5 μg/ml BlasticidinS HCl (Invivogen Ant-bl-5).
On the day of the experiment, cells were resuspended in serum free media, counted and diluted to a final concentration of 3.5×10^6 cells per ml of media.
Cells were then placed onto the Sophion Qube 384 and rested for a minimum of 1 hour.
The following solutions were used for recording: • extracellular solution (in mM): 145 NaCl, 4 KCl, 1 MgCl2, 2 CaCl2), 10 HEPES, 10 glucose, pH 7.4, 315-320 mOsm. • intracellular solution (in mM): 120 KCl, 5.74 CaCl2), 1.75 MgCl2, 10 EGTA, 10 HEPES, 5 Na2ATP, pH 7.2, adjusted to 315 mOsm with sucrose.
After establishing the whole-cell configuration, cells were held at −80 mV throughout the experiment. A current-voltage (I-V) protocol stepping from −100 to +20 mV for 1 second was applied to measure Kv7.2/Kv7.3 currents, each step was followed by a 200 ms pulse to 0 mV to measure the tail currents. From the I-V protocol a Boltzmann fit was applied to generate activation curves. Data were sampled at 25 kHz and filtered at 5 kHz (Bessel). Data were produced using multihole QChips. The I-V protocol was applied several times to establish the response in control conditions (typically 0.3% DMSO) and in the presence of the test compound.
Data were reviewed in Sophion Analyser version 6.5.2 (Sophion Bioscience) for recording quality and filters were applied to remove any failed wells. Leak subtraction was applied to all recordings. Data filters for multihole QChips were typically: seal resistance>4 MΩ, capacitance >20 pF, baseline VHalf between 0 to −40 mV, baseline holding current between −2 to 2 nA, baseline steady state current at 20 mV >4 nA unless otherwise stated.
Analysis of Data for Assessment of Potency
10 concentrations of test compounds were applied to individual wells in quadruplicate to assess potency as a 1 in 3 dilution series from the maximal concentration of 30 μM. The average shift in the voltage for half activation (Vhalf) for each concentration was used to generate concentration-response curves fitted with a 4-parameter logistic model to estimate the EC50 from the point of inflection of the curve and the maximal shift in the Vhalf from the top of the curve.
The lower the EC50 value, the higher the potency of the analyzed compound. The selectivity criteria is assigned on the basis of the maximal shift in the Vhalf at 30 μM. […] In Table 3, ND means that selectivity was not determined.

Bounds are passed on as bounds.

As for `COc1ccc2c(c1)[C@H](NC(=O)NCc1cc(O[C@H](C)C(F)(F)F)ncn1)CCO2` [Compound 209], the EC50 stood at 9.7 µM and the “Kv7.2/7.3 ΔV1/2” value amounted to 37.49 mV.

Regarding `COc1ccc([C@@H](C)NC(=O)NCc2ccnc(OCC(F)(F)F)c2)cc1` [Compound 210], the EC50 was 4.54 µM and the “Kv7.2/7.3 ΔV1/2” value is 27.31 mV.

Turning to `O=C(NCc1ccc(OC(F)(F)F)cc1)NCc1ccnc(OCC(F)(F)F)c1` [Compound 211], the EC50 was 3.13 µM and the “Kv7.2/7.3 ΔV1/2” value stood at 22.62 mV.

For the compound `O=C(NCc1ccnc(OCC(F)(F)F)c1)N[C@@H](C1CC1)C(F)(F)F` [Compound 212], the EC50 came to 1.49 µM and the “Kv7.2/7.3 ΔV1/2” value was 41.94 mV.

Consider `O=C(NCc1ccnc(OCC(F)(F)F)c1)N[C@H](C1CC1)C(F)(F)F` [Compound 213], for which the EC50 came out at 0.68 µM and the “Kv7.2/7.3 ΔV1/2” value is given as 31.5 mV.

On to `O=C(NCc1ccnc(OCC(F)(F)F)c1)N[C@@H]1CCN(CC(F)(F)F)C1` [Compound 214], for which the EC50 was found to be 8.95 µM and the “Kv7.2/7.3 ΔV1/2” value was 30.24 mV.

Consider `COc1ccc([C@H](CF)NC(=O)NCc2ccnc(OCC(F)(F)F)c2)cc1` [Compound 215], for which the EC50 is 4.17 µM and the “Kv7.2/7.3 ΔV1/2” value was 24.17 mV.

Take `O=C(NCc1ccnc(OCC(F)(F)F)c1)N[C@@H]1CCCc2c(F)cccc21` [Compound 216]: the EC50 was determined as 1.4 µM and the “Kv7.2/7.3 ΔV1/2” value worked out at 49.32 mV.

Turning to `C#CCOc1cc(CNC(=O)N[C@@H]2CCCc3c(F)cccc32)ccn1` [Compound 217], the EC50 came to 1.76 µM and the “Kv7.2/7.3 ΔV1/2” value stood at 29.44 mV.

Take `O=C(NCc1ccnc(OCC(F)(F)F)c1)NC1(C(F)(F)F)COC1` [Compound 218]: the EC50 stood at 8 µM and the “Kv7.2/7.3 ΔV1/2” value amounted to 21.41 mV.

Take `O=C(NCc1ccnc(OCC(F)(F)F)c1)NCC12CC(F)(C1)C2` [Compound 219]: the EC50 was found to be 2.26 µM and the “Kv7.2/7.3 ΔV1/2” value is reported as 35.95 mV.

Take `O=C(NCc1ccnc(OCC(F)(F)F)c1)N[C@H]1COC[C@H]1c1ccc(F)cc1` [Compound 220]: the EC50 came out at 11.8 µM and the “Kv7.2/7.3 ΔV1/2” value came out at 29.83 mV.

Turning to `C[C@@H](Oc1cc(CNC(=O)N[C@@H]2COc3ccccc3C2)ncn1)C(F)(F)F` [Compound 221], the EC50 is 3.2 µM and the “Kv7.2/7.3 ΔV1/2” value was 35.15 mV.

Regarding `O=C(NCc1ccnc(OCC(F)(F)F)c1)N[C@@H]1COC[C@H]1Oc1cccc(F)c1` [Compound 222], the EC50 worked out at 4.16 µM and the “Kv7.2/7.3 ΔV1/2” value came out at 28.1 mV.

As for `C[C@@H](Oc1cc(CNC(=O)N[C@@H](C2CC2)C(F)(F)F)ncn1)C(F)(F)F` [Compound 223], the EC50 was found to be 7.4 µM and the “Kv7.2/7.3 ΔV1/2” value is given as 41.12 mV.

Take `C[C@@H](Oc1cc(CNC(=O)N[C@H](C2CC2)C(F)(F)F)ncn1)C(F)(F)F` [Compound 224]: the EC50 came out at 3.43 µM and the “Kv7.2/7.3 ΔV1/2” value is 37.09 mV.

Regarding `C[C@@H](Oc1cc(CNC(=O)N[C@@H]2CCOc3cc(F)ccc32)ncn1)C(F)(F)F` [Compound 225], the EC50 amounted to 6.41 µM and the “Kv7.2/7.3 ΔV1/2” value came out at 42.13 mV.

Turning to `C[C@@H](NC(=O)NCc1ccnc(OCC(F)(F)F)c1)c1ccc2c(c1)OC(F)(F)O2` [Compound 226], the EC50 is 1.83 µM and the “Kv7.2/7.3 ΔV1/2” value turned out to be 22.4 mV.

As for `C[C@@H](NC(=O)NCc1ccnc(OCC(F)(F)F)c1)c1cccc2c1OC(F)(F)O2` [Compound 227], the EC50 worked out at 1.86 µM and the “Kv7.2/7.3 ΔV1/2” value was 31.71 mV.

Take `O=C(NCc1ccnc(OCC(F)(F)F)c1)NCC12CC(C(F)(F)F)(C1)C2` [Compound 228]: the EC50 was found to be 0.97 µM and the “Kv7.2/7.3 ΔV1/2” value is recorded as 20.27 mV.

In the case of `O=C(NCc1ccnc(OCC(F)(F)F)c1)N[C@@H]1COC[C@H]1c1ccc(F)cc1` [Compound 229], the EC50 came to 12.7 µM and the “Kv7.2/7.3 ΔV1/2” value was found to be 76.14 mV.

Consider `O=C(NCc1ccnc(OCC(F)(F)F)c1)N[C@H]1COC[C@@H]1c1ccc(F)cc1` [Compound 230], for which the EC50 amounted to 1.77 µM and the “Kv7.2/7.3 ΔV1/2” value is recorded as 20.02 mV.

Take `O=C(NCc1ccnc(OCC(F)(F)F)c1)N[C@H]1CN(CC(F)(F)F)C[C@@H]1c1ccccc1` [Compound 231]: the EC50 is over 30 µM and the “Kv7.2/7.3 ΔV1/2” value is recorded as 49.96 mV.

With `O=C(NCc1ccnc(OCC(F)(F)F)c1)N[C@@H]1CN(CC(F)(F)F)C[C@H]1c1ccccc1` [Compound 232], the EC50 came out at 1.43 µM and the “Kv7.2/7.3 ΔV1/2” value is 23.95 mV.

For the compound `COc1ccc([C@H](NC(=O)NCc2ccnc(OCC(F)(F)F)c2)C(F)(F)F)cc1` [Compound 233], the EC50 was determined as 2.52 µM and the “Kv7.2/7.3 ΔV1/2” value came to 28.00 mV.

Regarding `O=C(NCc1ccnc(OCC(F)(F)F)c1)N[C@@H]1COC[C@H]1Oc1ccc(F)cc1` [Compound 234], the EC50 was found to be 5.26 µM and the “Kv7.2/7.3 ΔV1/2” value amounted to 27.37 mV.

As for `O=C(NCc1ccnc(OCC(F)(F)F)c1)N[C@@H]1COC2(CC2)C1` [Compound 235], the EC50 amounted to 6.22 µM and the “Kv7.2/7.3 ΔV1/2” value stood at 21.79 mV.

`O=C(NCc1ccnc(OCC(F)(F)F)c1)N[C@H]1C[C@H]2CC[C@@H]1O2` [Compound 236]: the EC50 came out at 11.9 µM and the “Kv7.2/7.3 ΔV1/2” value worked out at 31.52 mV.

In the case of `O=C(NCc1ccnc(OCC(F)(F)F)c1)N[C@@H]1C[C@@H]2CC[C@H]1O2` [Compound 237], the EC50 was determined as 11.7 µM and the “Kv7.2/7.3 ΔV1/2” value turned out to be 29.76 mV.

Regarding `C[C@@H](NC(=O)NCc1ccnc(OCC(F)(F)F)c1)c1ccc(OC(F)(F)F)cc1` [Compound 238], the EC50 was 2.91 µM and the “Kv7.2/7.3 ΔV1/2” value is 24.31 mV.

As to `O=C(NCc1ccnc(OCC(F)(F)F)c1)NCC12CC(F)(CO1)C2` [Compound 239], the EC50 was 5.1 µM and the “Kv7.2/7.3 ΔV1/2” value is recorded as 20.11 mV.

With `O=C(NCc1ccnc(OCC(F)(F)F)c1)N[C@H]1COC2(CC2)C1` [Compound 240], the EC50 came out at 11.7 µM and the “Kv7.2/7.3 ΔV1/2” value is 46.27 mV.

With `COc1cccc(N2C[C@H](NC(=O)NCc3ccnc(OCC(F)(F)F)c3)C(F)(F)C2)c1` [Compound 241], the EC50 is 3.32 µM and the “Kv7.2/7.3 ΔV1/2” value is 36.71 mV.

As to `O=C(NCc1ccnc(OCC(F)(F)F)c1)N[C@@H]1CCO[C@H]1c1ccc(F)cc1` [Compound 242], the EC50 worked out at 2.98 µM and the “Kv7.2/7.3 ΔV1/2” value was determined as 34.51 mV.

For `O=C(NCc1ccnc(OCC(F)(F)F)c1)N[C@@H]1COC[C@H]1Oc1ccccc1F` [Compound 243], the EC50 came out at 3.73 µM and the “Kv7.2/7.3 ΔV1/2” value is 26.56 mV.

Turning to `C[C@@H](Oc1cc(CNC(=O)NCC23CC(F)(C2)C3)ncn1)C(F)(F)F` [Compound 244], the EC50 was 7.59 µM and the “Kv7.2/7.3 ΔV1/2” value is reported as 26.21 mV.

Regarding `O=C(NCc1ccnc(OCC(F)(F)F)c1)N[C@@H]1CCO[C@H](c2ccc(F)cc2)C1` [Compound 245], the EC50 was 2.19 µM and the “Kv7.2/7.3 ΔV1/2” value is on record as 46.39 mV.

`Cn1ncc(C(F)(F)F)c1COc1cc(CNC(=O)NCCC2(C(F)(F)F)CC2)ccn1` [Compound 246]: the EC50 was 1.76 µM and the “Kv7.2/7.3 ΔV1/2” value is reported as 22.48 mV.

For the compound `Cc1cnc(COc2cc(CNC(=O)NCCC3(C(F)(F)F)CC3)ccn2)o1` [Compound 247], the EC50 amounted to 5.05 µM and the “Kv7.2/7.3 ΔV1/2” value is reported as 24.56 mV.

The record behind these values is patent publication US20260207563A1, “UREA COMPOUNDS AS ACTIVATORS OF POTASSIUM CHANNELS KV7.2/7.3 USEFUL IN THE TREATMENT OF CNS AND PNS DISORDERS” (ANGELINI PHARMA S.P.A., priority 2022, published 2026).
